# Results from patent US6286513A, “Methods for treating superficial bladder carcinoma” (priority 1998, dated 2001).
# Entries after “also recorded” stand apart in the source; their conditions may differ.
# Legend:
# [1] = Blood levels of MMC during high efficacy therapy; type: in vivo, patients
# [2] = test system: high grade tumors (grade III); experiment: Recurrence in patients with high grade tumors (Example 6); type: in vivo
# Method: Twenty-seven patients from whom high grade tumors (i.e., grade III)had been removed were treated weekly for six weeks with the high efficacy therapy as described above in example 1 and 23 patients from whom high grade tumors had been removed were treated weekly for six weeks with the customary experimental therapy as described in example 1. All patients were evaluated as described in example 1. The median time to recurrence was not reached for patients treated by the high efficacy treatment versus 179 days for patients treated by the customary experimental treatment. The projected 5-year recurrence free value is 52% for the patients receiving the high efficacy treatment and 19% for the customary experimental treatment.
# [3] = Overall bladder wall exposure to MMC: urinary AUC, C^n×T, urine production and pH (Table 3); type: in vivo, patients; conditions: for Urinary AUC / Urinary C^n × T: mean ± standard deviation; for Urinary C^n × T: n = 1.24
# Text: A commonly used measure of drug exposure for anticancer agent is the product of exposure concentration and duration, or AUC (area under the curve). […] The drug exposure in the urinary bladder can be determined from the drug concentration in the urine and can serve as a measure of exposure to the tumor tissue.
# [4] = previous studies, cited from earlier work
# [5] = test system: recurrent Ta, T1 or Tis tumors; experiment: Recurrence in patients with recurrent tumors (Example 2, FIG. 12); type: in vivo; conditions: for median time to recurrence / projected 5-year tumor recurrence free rate: recurrent tumors
# Method: Seventy-seven patients from whom recurrent Ta, T1 or Tis tumors had been resected were treated weekly for six weeks with the high efficacy therapy as described above in example 1 and 68 patients from whom recurrent Ta, T1 or Tis tumors had been resected were treated by the customary experimental therapy as described in example 1. All patients had undergone at least one previous round of therapy, to several previous rounds of resection plus chemotherapy consisting of treatment with BCG, MMC, doxorubicin and doxorubicin and cisplatin. For example, 44 patients treated with the high efficacy treatment and 42 patients treated with the customary experimental method had at least two tumor resections. Thirty-eight patients in each of the two treatment arms fad received previous tumor resections plus at least one series of adjuvant chemotherapy. All patients were evaluated as described in example 1.
# [6] = test system: superficial bladder carcinomas; conditions: customary experimental MMC, weekly, 1 mg/ml in 20-40 ml, six to eight weeks; cited from earlier work
# [7] = test system: Ta, T1 or Tis bladder tumors; experiment: Clinical trial of adjuvant intravesical MMC after transurethral resection: recurrence in Ta, T1 or Tis bladder tumor patients (Example 1, Table 2, FIG. 1); type: in vivo; conditions: for median time to recurrence: all patients (Ta, T1, Tis); for percentage of patients projected to be tumor recurrence-free at the end of 5 years: all patients, Kaplan-Meier projection
# Method: One hundred and eight patients with histologically proven primary or recurrent transitional cell carcinoma of grade I to grade III and of stage Ta, T1 or Tis who had their tumors completely resected received the high efficacy therapy within 4 weeks after surgery.
# The high efficacy therapy was administered once weekly for a total of six treatments. The MMC dosing solution was made by adding 40 mg of MMC to a vial containing 20 ml of sterile water.
# To reduce urine production in the patients during treatment with the MMC dosing solution, the patients were instructed to refrain from fluids for 8 hours prior to and during treatment with the MMC dosing solution. To maintain the pH levels of the urine produced during treatment with the MMC dosing solution, the patients were given 1.3 grams of sodium bicarbonate the night prior to treatment, upon rising on the morning of treatment and 30 minutes prior to treatment. Then a Foley catheter was placed in the bladder of the patients and the bladder was drained by gravity. This was accomplished by holding the catheter end below the level of the bladder. The post void residual urine volume was determined using a bladder ultrasound machine. Drainage of the bladder was repeated until the residual urine volume was less than 10 ml. Drainage was aided by having the patient sit up or stand up, or reach forward while standing. Thereafter, 40 mg of MMC in 20 ml sterile water was instilled intravesically by gravity into the bladder of the patient and retained there for 2 hours. After the 2 hour therapy, bladder contents were drained from the patients and the volume and pH of the contents measured.
# For purposes of comparison, 97 matching control patients from whom primary Ta, T1 or Tis bladder tumors had been completely resected were subjected to the customary experimental MMC intravesical therapy weekly for six weeks. These patients were not instructed to refrain from fluids for 8 hours prior to or during the customary experimental therapy. Prior to instillation of the 1 mg/ml MMC dosing solution, the patients were placed in the supine or dorsal lithotomy position and a Foley catheter inserted transurethrally into the bladder of the patients. The bladders were drained by gravity and the post void urine residual volume was measured. No attempts were made to further reduce the residual urine volume. Thereafter, 20 mg of MMC in 20 ml sterile water was instilled intravesically by gravity into the bladders of the patients and retained for 2 hours. After the 2 hour therapy, bladder contents were drained from the patients and the volume and pH of the contents measured.
# Cytoscopy was performed on each surviving patient quarterly at three months for 2 years and then at 3 months or six months for the remaining 3 years to look for evidence of visible tumors. Urine cytology was performed on each surviving patient quarterly at three months for 2 years and then at 3 months or six months for the remaining 3 years to look for cells with aneuploid DNA contents. […] If necessary, i.e., if tumor recurrence was suspected, the follow-up included biopsy of the suspicious area and transurethral resection of the bladder tumor. Patients with proven recurrence were treated according to standards in the clinical community.
# At each time period the number of patients who had developed histologically proven recurrent or progressive disease on biopsy or cytology was determined. The percentage of patients who remained tumor free at each time period after receiving the high efficacy therapy or the customary experimental therapy is shown in FIG. 1.
# The Kaplan-Meier Curve is a conventional tool used to project treatment outcome such as the % of patients who remain alive or free of disease at a certain time interval. (Martin Bland, Introduction to Medical Statistics (1994) Oxford Press). The Kaplan Meier Curve was used to compare the customary experimental therapy to the high efficacy therapy. […]
# [8] = in vitro, previous results; cited from earlier work
# [9] = test system: multifocal Ta, T1, Tis tumors; experiment: Recurrence in patients with multifocal tumors (Example 3, FIG. 9); type: in vivo
# Method: Sixty-five of patients from whom 3 or more Ta, T1,or Tis tumors had been removed were treated weekly for six weeks with the high efficacy therapy as described above in example 1 and 52 patients from whom 3 or more Ta, T1, or Tis tumors had been removed were treated weekly for six weeks with standard MMC intravsical therapy as described in example 1. All patients received the follow-up described in example 1.
# [10] = customary experimental treatment
# [11] = high efficacy vs customary experimental therapy
# [12] = customary experimental MMC intravesical therapy
smiles,measurement,setting,value
COC12C(COC(N)=O)C3=C(C(=O)C(C)=C(N)C3=O)N1CC1NC12 (stereo not shown) [MMC],"blood levels of MMC, in most instances",[1],less than 5 ng/ml
same,"levels of MMC in the blood of the patients, upper bound",[1],≤ 50 ng/mL
same,median time to recurrence,[2]; [10],179 days
same,projected 5-year recurrence free value,[2]; [10],19%
same,median time to recurrence,[2]; high efficacy treatment,not reached
same,projected 5-year recurrence free value,[2]; high efficacy treatment,52%
same,Urinary AUC,[3]; customary experimental therapy,24.2 ± 14.7 mg·min/mL
same,Urinary C^n × T,[3]; customary experimental therapy,97.2 ± 77.08 mg^n.min/ml
same,Urinary AUC,[3]; high efficacy therapy,57.6 ± 37.2 mg·min/mL
same,Urinary C^n × T,[3]; high efficacy therapy,291 ± 283 mg^n.min/ml
same,"average drug exposure measured as AUC, high efficacy relative to customary",[3]; [11],2 times
same,"average drug exposure measured as C^n×T, high efficacy relative to customary",[3]; [11],2.4 times
same,systemic dose without significant host toxicity,[4]; MMC given systemically,≤ 50 mg
same,blood level of MMC without significant host toxicity,[4],below 400 ng/ml
same,median time to recurrence,[5]; customary experimental therapy,339 days
same,projected 5-year tumor recurrence free rate,[5]; customary experimental therapy,26%
same,median time to recurrence,[5]; high efficacy therapy,754 days
same,projected 5-year tumor recurrence free rate,[5]; high efficacy therapy,39%
same,"delaying and preventing tumor recurrence, vs customary therapy","[5]; high efficacy therapy, recurrent tumors despite other adjuvant therapies",more effective
same,additional patients without recurrent tumor at 1 year vs transurethral resection alone,[6],1-13%
same,median time to recurrence,[7]; [12],292 days
same,percentage of patients projected to be tumor recurrence-free at the end of 5 years,[7]; [12],20%
same,"percentage of patients projected to remain tumor recurrence free for 5 years, vs customary therapy","[7]; high efficacy therapy, Ta, T1, Tis","more effective in enhancing the percentage or fraction of Ta, T1, Tis bladder tumor patients that are projected to remain tumor recurrence free for a period of 5 years"
same,"rate of recurrence and time interval before tumor recurrence, vs customary therapy","[7]; high efficacy therapy, Ta, T1 or Tis",more effective at reducing the rate of recurrence and increasing the time interval before tumor recurrence is observed; also recorded: tumors recurred at a later time in patients receiving the high efficacy treatment
same,median time to recurrence,[7]; high efficacy therapy,754 days
same,percentage of patients projected to be tumor recurrence-free at the end of 5 years,[7]; high efficacy therapy,41%
same,relative importance of drug concentration and treatment duration,[8],the drug concentration is more important than treatment duration
same,projected 5-year recurrence free rate,"[9]; customary experimental therapy, multifocal tumors",17%
same,projected 5-year recurrence free rate,"[9]; high efficacy therapy, multifocal tumors",32%
same,"delaying and preventing tumor recurrence, vs customary therapy","[9]; high efficacy therapy, multiple tumors",more effective
same,median time to tumor recurrence,"[9]; standard treatment (so in the source), multifocal tumors",488 days
